Measured values published in patent publication US9539257B2, “Method of treating cancer” (NOVARTIS AG, priority 2009, dated 2017).

Columns and labels:
[1] = previous reports; cited from earlier work

From the text for HLA-DQA1*0201: The confirmatory study also offered a means to evaluate the specificity of the lapatanib effect by assessment of the letrozole-only arm in the same trial.

| Compound | DQA1*0201 carriage in ALT cases (HLA-DQA1*0201; letrozole-only comparator treatment arm (3/11)) | DQA1*0201 carriage in ALT controls (HLA-DQA1*0201; letrozole-only comparator treatment arm (40/159)) | cumulative incidence of ALT elevation, DQA1*0201 carriers compared with non-carriers (HLA-DQA1*0201; letrozole-only treated patients, FIG. 3) | type of liver injury [1] |
| --- | --- | --- | --- | --- |
| N#Cc1ccc(C(c2ccc(C#N)cc2)n2cncn2)cc1 [letrozole, 4-[(4-cyanophenyl)-(1,2,4-triazol-1-yl)methyl]benzonitrile] | 27% | 25% | did not differ | – |
| Cc1onc(-c2c(F)cccc2Cl)c1C(=O)N[C@@H]1C(=O)N2[C@@H]1SC(C)(C)[C@@H]2C(=O)O [flucloxacillin] | – | – | – | cholestatic |
| CC1(C)S[C@@H]2[C@H](NC(=O)[C@H](N)c3ccc(O)cc3)C(=O)N2[C@H]1C(=O)O [Amoxicillin] | – | – | – | cholestatic |
